The results in this text go back to PMC6257473, “Artificial Self-Sufficient P450 in Reversed Micelles” (Molecules, 2010).

The target in the test is T1, A. pernix ADH (Aeropyrum pernix, UniProt Q9Y9P9).
T1 construct: heat treatment, DEAE Sepharose and Superdex 200
T1 sequence (Q9Y9P9 1-344): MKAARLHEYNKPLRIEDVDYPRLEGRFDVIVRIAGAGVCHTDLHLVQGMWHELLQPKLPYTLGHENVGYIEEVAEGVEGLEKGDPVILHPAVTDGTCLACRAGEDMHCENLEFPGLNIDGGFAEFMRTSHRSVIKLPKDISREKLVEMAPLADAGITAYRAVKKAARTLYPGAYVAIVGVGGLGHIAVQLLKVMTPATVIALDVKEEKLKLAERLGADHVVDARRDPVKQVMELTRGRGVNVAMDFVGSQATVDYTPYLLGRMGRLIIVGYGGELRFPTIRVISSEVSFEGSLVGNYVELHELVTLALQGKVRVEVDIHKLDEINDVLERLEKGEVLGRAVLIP
The test can be described thus: NADH formation, initial rate. Format: biochemical. The conditions noted are these: 70 μM NAD+, 25 °C.

Turning to `CCCC(C)O` (centres unmarked) [2-pentanol], the “NADH formation, initial rate” value (aqueous, 50 mM potassium phosphate pH 7.4, 150 mM KCl, 1.2 μM enzyme, substrate activation) was “substrate activation was also observed when using 2-pentanol as a substrate in water”.
Consider `NC(=O)c1ccc[n+]([C@@H]2O[C@H](COP(=O)(O)OP(=O)(O)OC[C@H]3O[C@@H](n4cnc5c(N)ncnc54)[C@H](O)[C@@H]3O)[C@@H](O)[C@H]2O)c1` [NAD^+], for which, under “CTAB/2-pentanol/isooctane reversed micelles, W0 16.7, 2-pentanol as co-substrate”, the “NADH formation, initial rate” value is listed as “A. pernix ADH showed NAD^+ reduction activity in a CTAB/2-pentanol/isooctane reversed micellar system”.
